PubChem BioAssay AID256 (DTP/NCI, 2004)
Several values for one entry are separate records, joined by “and”; a condition that tells them apart may be missing. Identical values can stand only once. Inconclusive results and toxic doses are left out.

System: CD2F1 mice, L1210 leukemia ip, survival T/C
Test: NCI In Vivo Anticancer Drug Screen. Data for tumor model L1210 Leukemia (intraperitoneal) in CD2F1 (CDF1) mice
Conditions: higher = longer survival
Procedure, shortened: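 Read-out first: treated-group measurement over vehicle-control measurement, expressed as a ratio. Animals bore a transplanted tumor line and were dosed with compound or vehicle.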

[1] = endpoint: mean survival time, dose: 100.0 mg/kg/injection, schedule: Q01DX009 (ip), vehicle: saline with Tween-80
[2] = endpoint: mean survival time, dose: 100.0 mg/kg/injection, schedule: Q04DX003 (ip), vehicle: saline
[3] = endpoint: mean survival time, dose: 200.0 mg/kg/injection, schedule: Q01DX009 (ip), vehicle: saline with Tween-80
[4] = endpoint: mean survival time, dose: 100.0 mg/kg/injection, schedule: Q04DX003 (ip), vehicle: saline with Tween-80
[5] = endpoint: mean survival time, dose: 200.0 mg/kg/injection, schedule: Q04DX003 (ip), vehicle: saline with Tween-80
[6] = endpoint: mean survival time, dose: 400.0 mg/kg/injection, schedule: Q04DX003 (ip), vehicle: saline with Tween-80

SMILES: Cc1cccc(C2=NCCN2)c1C
- T/C (endpoint: mean survival time, dose: 5.0 mg/kg/injection, schedule: Q01DX001 (ip), vehicle: saline with Tween-80): 95 % of control
- T/C (endpoint: mean survival time, dose: 10.0 mg/kg/injection, schedule: Q01DX001 (ip), vehicle: saline with Tween-80): 97 % of control
- T/C (endpoint: mean survival time, dose: 20.0 mg/kg/injection, schedule: Q01DX001 (ip), vehicle: saline with Tween-80): 97 % of control

SMILES: CC(=O)SCCNCCOCCC#N
- T/C [1]: 97 % of control
- T/C [2]: 95 % of control
- T/C [3]: 101 % of control
- T/C (endpoint: mean survival time, dose: 200.0 mg/kg/injection, schedule: Q04DX003 (ip), vehicle: saline): 101 % of control
- T/C (endpoint: mean survival time, dose: 400.0 mg/kg/injection, schedule: Q01DX009 (ip), vehicle: saline with Tween-80): 95 % of control
- T/C (endpoint: mean survival time, dose: 400.0 mg/kg/injection, schedule: Q04DX003 (ip), vehicle: saline): 101 % of control

SMILES: O=NN(CCCl)C(=O)NC1OC(CO)C(O)C(O)C1O (stereo unspecified)
- T/C (endpoint: mean survival time, dose: 2.5 mg/kg/injection, schedule: Q01DX009 (ip), vehicle: saline): 215 % of control
- T/C (endpoint: mean survival time, dose: 5.0 mg/kg/injection, schedule: Q01DX009 (ip), vehicle: saline): 176 % of control
- T/C (endpoint: mean survival time, dose: 10.0 mg/kg/injection, schedule: Q04DX002 (ip), vehicle: saline): 243 % of control
- T/C (endpoint: mean survival time, dose: 20.0 mg/kg/injection, schedule: Q04DX002 (ip), vehicle: saline): 121 % of control
- T/C (endpoint: median survival time, dose: 1.8 mg/kg/injection, schedule: Q01DX009 (ip), vehicle: saline): 175 % of control
- T/C (endpoint: median survival time, dose: 3.0 mg/kg/injection, schedule: Q01DX009 (ip), vehicle: saline): 175 % of control
- T/C (endpoint: median survival time, dose: 13.89 mg/kg/injection, schedule: Q01DX009 (ip), vehicle: saline): 96 % of control

SMILES: Cc1c2ncnc-2ncn1O
- T/C (endpoint: mean survival time, dose: 25.0 mg/kg/injection, schedule: Q04DX003 (ip), vehicle: saline): 97 % of control
- T/C (endpoint: mean survival time, dose: 50.0 mg/kg/injection, schedule: Q04DX003 (ip), vehicle: saline): 101 % of control
- T/C [2]: 104 % of control

SMILES: CC1(C)CC(C)(Br)C(Br)C(=O)C1C(O)(C(F)(F)F)C(F)(F)F (stereo unspecified)
- T/C [4]: 100 % of control
- T/C [5]: 97 % of control
- T/C [6]: 100 % of control

SMILES: CC1=C(N)C(=O)c2c(COC(N)=O)c3n(c2C1=O)C[C@H]1N[C@@H]31
- T/C (endpoint: mean survival time, dose: 3.0 mg/kg/injection, schedule: Q01DX001 (ip), vehicle: distilled water + Tween-80): 105 % of control
- T/C (endpoint: mean survival time, dose: 6.0 mg/kg/injection, schedule: Q01DX001 (ip), vehicle: distilled water + Tween-80): 100 % of control
- T/C (endpoint: mean survival time, dose: 12.0 mg/kg/injection, schedule: Q01DX001 (ip), vehicle: distilled water + Tween-80): 100 % of control
- T/C (endpoint: mean survival time, dose: 24.0 mg/kg/injection, schedule: Q01DX001 (ip), vehicle: distilled water + Tween-80): 100 % of control
- T/C (endpoint: mean survival time, dose: 48.0 mg/kg/injection, schedule: Q01DX001 (ip), vehicle: distilled water + Tween-80): 94 % of control

SMILES: NC(C(=O)O)c1ccc(CBr)cc1 (stereo unspecified)
- T/C (endpoint: median survival time, dose: 3.12 mg/kg/injection, schedule: Q01DX009 (ip), vehicle: saline with Tween-80): 108 % of control
- T/C (endpoint: median survival time, dose: 6.25 mg/kg/injection, schedule: Q01DX009 (ip), vehicle: saline with Tween-80): 116 % of control and 100 % of control and 112 % of control
- T/C (endpoint: median survival time, dose: 12.5 mg/kg/injection, schedule: Q01DX009 (ip), vehicle: saline with Tween-80): 113 % of control and 121 % of control and 105 % of control
- T/C (endpoint: median survival time, dose: 25.0 mg/kg/injection, schedule: Q01DX009 (ip), vehicle: saline with Tween-80): 116 % of control and 103 % of control
- T/C (endpoint: median survival time, dose: 50.0 mg/kg/injection, schedule: Q01DX009 (ip), vehicle: saline with Tween-80): 121 % of control and 108 % of control

SMILES: C[N+]1(C)N=C([O-])N(c2cccc3ccccc23)C1=O
- T/C (endpoint: mean survival time, dose: 100.0 mg/kg/injection, schedule: Q01DX001 (ip), vehicle: saline with Tween-80): 98 % of control
- T/C [1]: 103 % of control
- T/C (endpoint: mean survival time, dose: 200.0 mg/kg/injection, schedule: Q01DX001 (ip), vehicle: saline with Tween-80): 101 % of control
- T/C [3]: 108 % of control
- T/C (endpoint: mean survival time, dose: 400.0 mg/kg/injection, schedule: Q01DX001 (ip), vehicle: saline with Tween-80): 98 % of control

SMILES: Cc1cc2c3ccccc3nc(C(F)(F)F)n2n1
- T/C (endpoint: mean survival time, dose: 100.0 mg/kg/injection, schedule: Q04DX003 (ip), vehicle: saline sonified): 96 % of control
- T/C (endpoint: mean survival time, dose: 200.0 mg/kg/injection, schedule: Q04DX003 (ip), vehicle: saline sonified): 100 % of control
- T/C (endpoint: mean survival time, dose: 400.0 mg/kg/injection, schedule: Q04DX003 (ip), vehicle: saline sonified): 100 % of control

SMILES: Nc1ccccc1SC1CC(=O)N(c2ccccc2Cl)C1=O (stereo unspecified)
- T/C [4]: 93 % of control
- T/C [5]: 89 % of control
- T/C [6]: 89 % of control

SMILES: COC(=O)/C=N/NS(=O)(=O)c1cccc(N)c1
- T/C (endpoint: mean survival time, dose: 25.0 mg/kg/injection, schedule: Q04DX003 (ip), vehicle: water): 110 % of control
- T/C (endpoint: mean survival time, dose: 50.0 mg/kg/injection, schedule: Q04DX003 (ip), vehicle: water): 104 % of control
- T/C (endpoint: mean survival time, dose: 100.0 mg/kg/injection, schedule: Q04DX003 (ip), vehicle: water): 108 % of control
- T/C (endpoint: mean survival time, dose: 200.0 mg/kg/injection, schedule: Q04DX003 (ip), vehicle: water): 112 % of control

SMILES: S=c1nc(-c2ccncc2)[nH][nH]1
- T/C (endpoint: mean survival time, dose: 25.0 mg/kg/injection, schedule: Q01DX009 (ip), vehicle: saline sonified): 107 % of control
- T/C (endpoint: mean survival time, dose: 50.0 mg/kg/injection, schedule: Q01DX009 (ip), vehicle: saline sonified): 98 % of control
- T/C (endpoint: mean survival time, dose: 100.0 mg/kg/injection, schedule: Q01DX009 (ip), vehicle: saline sonified): 107 % of control
- T/C [4]: 100 % of control
